Tested on: HCI-001 (organoid from a triple-negative breast cancer xenograft)
Assay: CTG-3D luminescence at 96 h relative to day-0 seeding control (ratio to day 0); higher = more growth / less cytotoxicity; PDxO 3D drug screen (set 2), 96 h, CTG-3D normalised to day-0 seeding control.
Conditions: 12.5 pM; days in culture: 365

| SMILES | CTG-3D luminescence at 96 h |
| --- | --- |
| COc1cccc2c1C(=O)c1c(O)c3c(c(O)c1C2=O)C[C@@](O)(C(=O)CO)C[C@@H]3O[C@H]1C[C@H](N)[C@@H](O)[C@H](C)O1 [epirubicin] | 2.72 |
| CC(=O)c1c(C)c2cnc(Nc3ccc(N4CCNCC4)cn3)nc2n(C2CCCC2)c1=O [palbociclib] | 2.73 |
| O=C(c1cc(Cc2n[nH]c(=O)c3ccccc23)ccc1F)N1CCN(C(=O)C2CC2)CC1 [olaparib] | 2.29 |

Same assay, conditions: 12.5 pM; days in culture: 397

| SMILES | CTG-3D luminescence at 96 h |
| --- | --- |
| COc1cccc2c1C(=O)c1c(O)c3c(c(O)c1C2=O)C[C@@](O)(C(=O)CO)C[C@@H]3O[C@H]1C[C@H](N)[C@@H](O)[C@H](C)O1 [epirubicin] | 1.49 |
| CC(=O)c1c(C)c2cnc(Nc3ccc(N4CCNCC4)cn3)nc2n(C2CCCC2)c1=O [palbociclib] | 1.74 |
| O=C(c1cc(Cc2n[nH]c(=O)c3ccccc23)ccc1F)N1CCN(C(=O)C2CC2)CC1 [olaparib] | 1.71 |

Same assay, conditions: 12.5 pM; days in culture: 401

| SMILES | CTG-3D luminescence at 96 h |
| --- | --- |
| COc1cccc2c1C(=O)c1c(O)c3c(c(O)c1C2=O)C[C@@](O)(C(=O)CO)C[C@@H]3O[C@H]1C[C@H](N)[C@@H](O)[C@H](C)O1 [epirubicin] | 1.41 |
| CC(=O)c1c(C)c2cnc(Nc3ccc(N4CCNCC4)cn3)nc2n(C2CCCC2)c1=O [palbociclib] | 1.54 |
| O=C(c1cc(Cc2n[nH]c(=O)c3ccccc23)ccc1F)N1CCN(C(=O)C2CC2)CC1 [olaparib] | 1.69 |

Same assay, conditions: 0.00025 µM; days in culture: 365

| SMILES | CTG-3D luminescence at 96 h |
| --- | --- |
| COc1cccc2c1C(=O)c1c(O)c3c(c(O)c1C2=O)C[C@@](O)(C(=O)CO)C[C@@H]3O[C@H]1C[C@H](N)[C@@H](O)[C@H](C)O1 [epirubicin] | 2.24 |
| CC(=O)c1c(C)c2cnc(Nc3ccc(N4CCNCC4)cn3)nc2n(C2CCCC2)c1=O [palbociclib] | 2.25 |
| O=C(c1cc(Cc2n[nH]c(=O)c3ccccc23)ccc1F)N1CCN(C(=O)C2CC2)CC1 [olaparib] | 1.96 |

Same assay, conditions: 0.00025 µM; days in culture: 397

| SMILES | CTG-3D luminescence at 96 h |
| --- | --- |
| COc1cccc2c1C(=O)c1c(O)c3c(c(O)c1C2=O)C[C@@](O)(C(=O)CO)C[C@@H]3O[C@H]1C[C@H](N)[C@@H](O)[C@H](C)O1 [epirubicin] | 2.3 |
| CC(=O)c1c(C)c2cnc(Nc3ccc(N4CCNCC4)cn3)nc2n(C2CCCC2)c1=O [palbociclib] | 2.12 |
| O=C(c1cc(Cc2n[nH]c(=O)c3ccccc23)ccc1F)N1CCN(C(=O)C2CC2)CC1 [olaparib] | 2.02 |

Same assay, conditions: 0.00025 µM; days in culture: 401

| SMILES | CTG-3D luminescence at 96 h |
| --- | --- |
| COc1cccc2c1C(=O)c1c(O)c3c(c(O)c1C2=O)C[C@@](O)(C(=O)CO)C[C@@H]3O[C@H]1C[C@H](N)[C@@H](O)[C@H](C)O1 [epirubicin] | 1.96 |
| CC(=O)c1c(C)c2cnc(Nc3ccc(N4CCNCC4)cn3)nc2n(C2CCCC2)c1=O [palbociclib] | 2.13 |
| O=C(c1cc(Cc2n[nH]c(=O)c3ccccc23)ccc1F)N1CCN(C(=O)C2CC2)CC1 [olaparib] | 1.42 |

Same assay, conditions: 0.005 µM; days in culture: 365

| SMILES | CTG-3D luminescence at 96 h |
| --- | --- |
| COc1cccc2c1C(=O)c1c(O)c3c(c(O)c1C2=O)C[C@@](O)(C(=O)CO)C[C@@H]3O[C@H]1C[C@H](N)[C@@H](O)[C@H](C)O1 [epirubicin] | 2.31 |
| CC(=O)c1c(C)c2cnc(Nc3ccc(N4CCNCC4)cn3)nc2n(C2CCCC2)c1=O [palbociclib] | 2.7 |
| O=C(c1cc(Cc2n[nH]c(=O)c3ccccc23)ccc1F)N1CCN(C(=O)C2CC2)CC1 [olaparib] | 2.13 |

Same assay, conditions: 0.005 µM; days in culture: 397

| SMILES | CTG-3D luminescence at 96 h |
| --- | --- |
| COc1cccc2c1C(=O)c1c(O)c3c(c(O)c1C2=O)C[C@@](O)(C(=O)CO)C[C@@H]3O[C@H]1C[C@H](N)[C@@H](O)[C@H](C)O1 [epirubicin] | 1.7 |
| CC(=O)c1c(C)c2cnc(Nc3ccc(N4CCNCC4)cn3)nc2n(C2CCCC2)c1=O [palbociclib] | 2.31 |
| O=C(c1cc(Cc2n[nH]c(=O)c3ccccc23)ccc1F)N1CCN(C(=O)C2CC2)CC1 [olaparib] | 2 |

Same assay, conditions: 0.005 µM; days in culture: 401

| SMILES | CTG-3D luminescence at 96 h |
| --- | --- |
| COc1cccc2c1C(=O)c1c(O)c3c(c(O)c1C2=O)C[C@@](O)(C(=O)CO)C[C@@H]3O[C@H]1C[C@H](N)[C@@H](O)[C@H](C)O1 [epirubicin] | 1.6 |
| CC(=O)c1c(C)c2cnc(Nc3ccc(N4CCNCC4)cn3)nc2n(C2CCCC2)c1=O [palbociclib] | 1.58 |
| O=C(c1cc(Cc2n[nH]c(=O)c3ccccc23)ccc1F)N1CCN(C(=O)C2CC2)CC1 [olaparib] | 1.54 |

Same assay, conditions: 0.1 µM; days in culture: 365

| SMILES | CTG-3D luminescence at 96 h |
| --- | --- |
| COc1cccc2c1C(=O)c1c(O)c3c(c(O)c1C2=O)C[C@@](O)(C(=O)CO)C[C@@H]3O[C@H]1C[C@H](N)[C@@H](O)[C@H](C)O1 [epirubicin] | 1.83 |
| CC(=O)c1c(C)c2cnc(Nc3ccc(N4CCNCC4)cn3)nc2n(C2CCCC2)c1=O [palbociclib] | 2.64 |
| O=C(c1cc(Cc2n[nH]c(=O)c3ccccc23)ccc1F)N1CCN(C(=O)C2CC2)CC1 [olaparib] | 2.28 |

Same assay, conditions: 0.1 µM; days in culture: 397

| SMILES | CTG-3D luminescence at 96 h |
| --- | --- |
| COc1cccc2c1C(=O)c1c(O)c3c(c(O)c1C2=O)C[C@@](O)(C(=O)CO)C[C@@H]3O[C@H]1C[C@H](N)[C@@H](O)[C@H](C)O1 [epirubicin] | 1.3 |
| CC(=O)c1c(C)c2cnc(Nc3ccc(N4CCNCC4)cn3)nc2n(C2CCCC2)c1=O [palbociclib] | 2.47 |
| O=C(c1cc(Cc2n[nH]c(=O)c3ccccc23)ccc1F)N1CCN(C(=O)C2CC2)CC1 [olaparib] | 1.8 |

Same assay, conditions: 0.1 µM; days in culture: 401

| SMILES | CTG-3D luminescence at 96 h |
| --- | --- |
| COc1cccc2c1C(=O)c1c(O)c3c(c(O)c1C2=O)C[C@@](O)(C(=O)CO)C[C@@H]3O[C@H]1C[C@H](N)[C@@H](O)[C@H](C)O1 [epirubicin] | 1.06 |
| CC(=O)c1c(C)c2cnc(Nc3ccc(N4CCNCC4)cn3)nc2n(C2CCCC2)c1=O [palbociclib] | 1.85 |
| O=C(c1cc(Cc2n[nH]c(=O)c3ccccc23)ccc1F)N1CCN(C(=O)C2CC2)CC1 [olaparib] | 1.68 |

Same assay, conditions: 1 µM; days in culture: 365

| SMILES | CTG-3D luminescence at 96 h |
| --- | --- |
| COc1cccc2c1C(=O)c1c(O)c3c(c(O)c1C2=O)C[C@@](O)(C(=O)CO)C[C@@H]3O[C@H]1C[C@H](N)[C@@H](O)[C@H](C)O1 [epirubicin] | 0.374 |
| CC(=O)c1c(C)c2cnc(Nc3ccc(N4CCNCC4)cn3)nc2n(C2CCCC2)c1=O [palbociclib] | 2.4 |
| O=C(c1cc(Cc2n[nH]c(=O)c3ccccc23)ccc1F)N1CCN(C(=O)C2CC2)CC1 [olaparib] | 2.05 |

Same assay, conditions: 1 µM; days in culture: 397

| SMILES | CTG-3D luminescence at 96 h |
| --- | --- |
| COc1cccc2c1C(=O)c1c(O)c3c(c(O)c1C2=O)C[C@@](O)(C(=O)CO)C[C@@H]3O[C@H]1C[C@H](N)[C@@H](O)[C@H](C)O1 [epirubicin] | 0.405 |
| CC(=O)c1c(C)c2cnc(Nc3ccc(N4CCNCC4)cn3)nc2n(C2CCCC2)c1=O [palbociclib] | 2.46 |
| O=C(c1cc(Cc2n[nH]c(=O)c3ccccc23)ccc1F)N1CCN(C(=O)C2CC2)CC1 [olaparib] | 2.31 |

Same assay, conditions: 1 µM; days in culture: 401

| SMILES | CTG-3D luminescence at 96 h |
| --- | --- |
| COc1cccc2c1C(=O)c1c(O)c3c(c(O)c1C2=O)C[C@@](O)(C(=O)CO)C[C@@H]3O[C@H]1C[C@H](N)[C@@H](O)[C@H](C)O1 [epirubicin] | 0.216 |
| CC(=O)c1c(C)c2cnc(Nc3ccc(N4CCNCC4)cn3)nc2n(C2CCCC2)c1=O [palbociclib] | 1.33 |
| O=C(c1cc(Cc2n[nH]c(=O)c3ccccc23)ccc1F)N1CCN(C(=O)C2CC2)CC1 [olaparib] | 1.23 |

Same assay, conditions: 10 µM; days in culture: 365

| SMILES | CTG-3D luminescence at 96 h |
| --- | --- |
| COc1cccc2c1C(=O)c1c(O)c3c(c(O)c1C2=O)C[C@@](O)(C(=O)CO)C[C@@H]3O[C@H]1C[C@H](N)[C@@H](O)[C@H](C)O1 [epirubicin] | 0.226 |
| CC(=O)c1c(C)c2cnc(Nc3ccc(N4CCNCC4)cn3)nc2n(C2CCCC2)c1=O [palbociclib] | 1.89 |
| O=C(c1cc(Cc2n[nH]c(=O)c3ccccc23)ccc1F)N1CCN(C(=O)C2CC2)CC1 [olaparib] | 2.04 |
